Here are results for 11 molecules from patent publication WO2020169698A1, “Sensitization of cancer cells to tnf by bet inhibition” (dated 2020).

One data set relates to HCT116-NLV cells. Nature of the data set: Epigenetic small molecule screen, coculture with CMV-specific T cells, 48 h. It is filed as cell-based, human. The following applies: Ag+ coculture, 2.5uM or 5uM.
Data set [1] deals with HCT116 cells. As to the kind of experiment: CellTiterGlo viability with BET inhibitor + TNF, 72 h. It counts as cell-based. The note with it: in combination with 15ng/ml TNF vs BET inhibitor single agent, significance for the highest concentration of compound.
In data set [2] the test system is MKN45 cells. The description is as above. The following applies: in combination with 15ng/ml TNF vs BET inhibitor single agent, significance for the highest concentration of compound. It counts as cell-based.
The next data set deals with Caspase 8. As to the kind of experiment: Caspase 8 Glo activity, 8 h. It counts as cell-based. The note with it: for Caspase 8 activity: RG6146 + 15ng/mL TNF vs RG6146 single agent, 8h.
A further data set relates to Caspase 3,7. Nature of the data set: Caspase 3,7 Glo activity, 8 h. It counts as cell-based. The following applies: for Caspase 3,7 activity: RG6146 + 15ng/mL TNF vs RG6146 single agent, 8h.
The test system of a further data set is HCT116-EBV cells. As to the kind of experiment: Epigenetic small molecule screen, negative control coculture with CMV-specific T cells, 48 h. The note with it: Ag- (EBV peptide) coculture, 2.5uM or 5uM.
Data set [3] concerns MKN45 cells. Nature of the data set: Viability with CEA-TCB/PBMC conditioned media + RG6146, 72 h. It is filed as cell-based.
Data set [4] relates to HCT116 cells. Nature of the data set: CEA-TCB 2 bystander killing of CEA negative cells, flow cytometry, 72 h. The following applies: RG6146 15uM to 0.002uM with CEA-TCB 2 activated CTLs. It is filed as cell-based.
Another data set deals with AU565 cells. Nature of the data set: Synergy of RG6146 and recombinant TNF (PI positivity, ZIP model). It counts as cell-based, human. The following applies: RG6146 + recombinant TNF, 18 hours.
Data set [5] concerns MC38 cells. As to the kind of experiment: Viability of p-gp 1 expressing MC38 cells with BET inhibitor + TNF +/- Zosuquidar, 72 h. The note with it: for change in sensitivity by p-gp 1 block with Zosuquidar: 0.5mM (so in the source) Zosuquidar, TNF 15ng/mL, 72 hours, some concentrations tested. It is filed as cell-based, murine.
In data set [6] the test system is MLL-AF9-driven acute myeloid leukemia cells. As to the kind of experiment: OT1 T cell cytotoxicity towards MLL-AF9 AML cells (PI positivity), 16 h. It is filed as cell-based, murine. The note with it: 2.5uM RG6146, 16 hours.
Another data set deals with HCT116-GFP cells. As to the kind of experiment: CEA-TCB bystander effect on CEA negative cell growth, Incucyte S3. The note with it: RG6146 combined with CEA-TCB (20nM) vs RG6146 single agent, one week. It counts as cell-based.
Data set [7] concerns MKN45 cells. Nature of the data set: Cleaved PARP Western blot with CEA-TCB conditioned media + RG6146. It counts as cell-based. The note with it: RG6146 (1 and 2.5 mM as printed) + CEA-TCB conditioned media, 24h; not seen in absence of CEA-TCB.
In data set [8] the test system is HCT116 cells. As to the kind of experiment: Cleaved PARP Western blot with CEA-TCB 2 conditioned media + RG6146. It is filed as cell-based. The note with it: RG6146 (2.5 and 7 mM as printed) + CEA-TCB 2 conditioned media; not seen in absence of CEA-TCB 2.
Data set [9] has as its system HCT116 cells. As to the kind of experiment: Growth with Caspase 8 knock down, Incucyte S3. It is filed as cell-based. The following applies: 2.5mM (so in the source) RG6146 + 15ng/ml TNF, 7 days.
Data set [10] relates to MKN45 cells. As to the kind of experiment: Cleaved PARP Western blot with CEA-TCB 2 conditioned media + RG6146. It counts as cell-based. The following applies: RG6146 (2.5 and 7 mM as printed) + CEA-TCB 2 conditioned media; not seen in absence of CEA-TCB 2.
Data set [11] relates to HCT116 cells. As to the kind of experiment: CEA-TCB bystander killing of CEA negative cells, flow cytometry, 72 h. It is filed as cell-based. The following applies: RG6146 15uM to 0.002uM with CEA-TCB activated T cells.
In data set [12] the test system is MC38 cells. As to the kind of experiment: Cell death of MC38 cells overexpressing Bcl-2 or cFLIP (PI positivity), 18 h. It is filed as cell-based, murine. Set-up: dose or concentration left out as unconfirmed. The following applies: cFLIP overexpression, RG6146 (so in the source) and TNF.
The test system of data set [13] is MC38 cells. As to the kind of experiment: Synergy of RG6146 and recombinant TNF (PI positivity, ZIP model). It counts as cell-based, murine. The note with it: RG6146 + recombinant TNF, 18 hours.
The subject of the next data set is MC38-Ova cells. Nature of the data set: OT1 T cell co-culture cytotoxicity (PI positivity), 18 h. It is filed as cell-based, murine. Set-up: dose or concentration left out as unconfirmed. The following applies: RG6146 with OT1 T cells.
Data set [14] concerns MC38-huCEA expressing sc tumors. Nature of the data set: In vivo antitumor efficacy against MC38-huCEA sc tumors. Set-up: species or system mice. The note with it: single agent; JQ1 50mg/kg ip once daily (14x) or CEA-TCB 2.5mg/kg iv twice weekly (4x); last day of study.
In data set [15] the test system is HCT116 cells. The note with it: CEA-TCB; "as has been shown for HCT116 cells that express no CEA"; cited from earlier work.
The subject of data set [16] is HCT116 cells. Nature of the data set: Viability with CEA-TCB/PBMC conditioned media + RG6146, 72 h. It counts as cell-based. The following applies: 20nM CEA-TCB conditioned media + RG6146 30uM to 0.0005uM.
The subject of data set [17] is CEA on tumor cells and CD3e on T cells. The following applies: mouse models; cited from earlier work.
[18] abbreviates: HCT116 and MKN45 cells, inhibitor with RG6146 + TNF (significance not shown).

For the molecule `CCS(=O)(=O)Nc1ccc(Oc2ccc(F)cc2F)c(-c2cn(C)c(=O)c3[nH]ccc23)c1` [Mivebresib], the viability entry in the data set on HCT116-NLV cells is “significantly decrease viability”.
For the molecule `COc1cc2c(cc1-c1c(C)noc1C)ncc1[nH]c(=O)n([C@H](C)c3ccccn3)c12` [ΪBET151], the viability result in the data set on HCT116-NLV cells, with HCT116 cells [1] and in the data set on MKN45 cells [2] was “significantly decrease viability” in each case.
Consider “Z-IETD-FMK: Caspase 8 inhibitor Z-IETD-FMK (R&D Systems #FMK007) (not fully specified)”, for which the “block of Caspase 8 activation” value with Caspase 8 (setting [18]) is “blocked Caspase 8 and downstream Caspase 3,7 activation completely”. Moreover, the “block of downstream Caspase 3,7 activation” value with Caspase 3,7 (setting [18]) is “blocked Caspase 8 and downstream Caspase 3,7 activation completely”.
For `Cc1[nH]c2ccccc2c1CCNCc1ccc(/C=C/C(=O)NO)cc1` [Panobinostat], the “viability in negative control coculture (toxicity)” value (from here on “viability … (toxicity)”) in the data set with HCT116-EBV cells is listed as “decreased viability also in the negative control”.
Turning to `Cc1sc2c(c1C)C(c1ccc(Cl)cc1)=N[C@@H](CC(=O)NCCCN1CCN(C)CC1)c1nnc(C)n1-2` [RG6146, 2-[(S)-4-(4-chloro-phenyl)-2,3,9-trimethyl-6H-l-thia-5,7,8,9a-tetraaza-cyclopenta[e]azulen-6-yl]-N-[3-(4-methyl-piperazin-l-yl)-propyl]-acetamide], the “Caspase 8 activity” value in the data set on Caspase 8 (HCT116 cells) was “induces Caspase3,7 and 8 activity in HCT-116 and MKN45 cells significantly”; in the data set with Caspase 8 (MKN45 cells), “induces Caspase3,7 and 8 activity in HCT-116 and MKN45 cells significantly”. The viability result in the data set on MKN45 cells [3] (RG6146 with CEA-TCB supernatant) was “decrease in viability”; in the data set with HCT116-NLV cells, “significantly decrease viability”; with HCT116 cells [1], “significantly decrease viability”; in the data set on MKN45 cells [2], “significantly decrease viability”. In addition, the “cell killing in CEA negative cells” value with HCT116 cells [4] and with HCT116 cells [11] was “able to increase cell killing” throughout. The “Caspase 3,7 activity” value in the data set on Caspase 3,7 (HCT116 cells) was “induces Caspase3,7 and 8 activity in HCT-116 and MKN45 cells significantly”; with Caspase 3,7 (MKN45 cells), “induces Caspase3,7 and 8 activity in HCT-116 and MKN45 cells significantly”. The “induction of cell death, synergy with TNF” value in the data set on AU565 cells and in the data set with MC38 cells [13] was “synergstic” each time. The “change in sensitivity by p-gp 1 block with Zosuquidar” value in the data set on MC38 cells [5] is recorded as “sensitized”. For the same molecule, the “sensitivity of p-gp 1 expressing MC38 cells” value with MC38 cells [5] (compared to JQ1) was “less sensitive”. Besides, the “cytotoxic activity of OT1 T cells” value in [6] (perforin expressing (wild-type) OT1 T cells) and in data set [6] (perforin-deficient OT1 T cells) was “augments the cytotoxic activity” throughout. Further, the “cell growth of CEA negative cells” value in the data set with HCT116-GFP cells is “significantly decrease cell growth”. Moreover, the “cell death (cleaved PARP)” value in the data set on MKN45 cells [7], in the data set with HCT116 cells [8] and in the data set on MKN45 cells [10] was “able to induce cell death” each time. Further, the cell growth rescue result in the data set on HCT116 cells [9] (Caspase 8 knockdown) is given as “rescued cell growth under these treatment conditions partially”. In addition, in the data set on HCT116 cells [9] (scr treated cells), the cell growth result was “completely blocked HCT116 cell growth”. In addition, the “cytotoxic effects of TNF+RG6146” value in the data set on MC38 cells [12] is reported as “abrogate the cytotoxic effects”. Further, the “cell death (PI positivity)” value in the data set with MC38-Ova cells is “increased cell death”.
As for `Nc1ccccc1NC(=O)c1ccc(CNC(=O)OCc2cccnc2)cc1` [Entinostat], in the data set with HCT116-EBV cells, the “viability … (toxicity)” value is given as “decreased viability also in the negative control”.
On to `CCNC(=O)c1cc2c(-c3cc(C(C)(C)O)ccc3Oc3c(C)cc(F)cc3C)cn(C)c(=O)c2[nH]1` [ABBV744], for which the viability result in the data set on HCT116-NLV cells was “significantly decrease viability”.
On to `O=C(CCCCCCC(=O)Nc1ccccc1)NO` [Vorinostat], for which the “viability … (toxicity)” value in the data set on HCT116-EBV cells is “decreased viability also in the negative control”.
Turning to `Cc1sc2c(c1C)C(c1ccc(Cl)cc1)=N[C@@H](CC(=O)Nc1ccc(O)cc1)c1nnc(C)n1-2` [OTX015], the viability entry in the data set on HCT116-NLV cells, in the data set with HCT116 cells [1] and in the data set on MKN45 cells [2] was “significantly decrease viability” in each case.
In the case of `Cc1sc2c(c1C)C(c1ccc(Cl)cc1)=N[C@@H](CC(=O)OC(C)(C)C)c1nnc(C)n1-2` [JQ1], the “change in sensitivity by p-gp 1 block with Zosuquidar” value in the data set on MC38 cells [5] was “no change”. Further, the viability entry in the data set with HCT116-NLV cells, in the data set with HCT116 cells [1] and in the data set with MKN45 cells [2] was “significantly decrease viability” each time. This molecule also registered a decreased tumor growth in data set [14] of 50%.

B1: CEA-TCB: T cell activating bispecific antibody targeting CEA on tumor cells and CD3e on T cells (antibody, chains of the INN, looked up, V domains shown)
VH: QVQLVQSGAEVKKPGASVKVSCKASGYTFTEFGMNWVRQAPGQGLEWMGWINTKTGEATYVEEFKGRVTFTTDTSTSTAYMELRSLRSDDTAVYYCARWDFAYYVEAMDYWGQGTTVTVSS
VL: DIQMTQSPSSLSASVGDRVTITCKASAAVGTYVAWYQQKPGKAPKLLIYSASYRKRGVPSRFSGSGSGTDFTLTISSLQPEDFATYYCHQYYTYPLFTFGQGTKLEIK
VH2: QVQLVQSGAEVKKPGASVKVSCKASGYTFTEFGMNWVRQAPGQGLEWMGWINTKTGEATYVEEFKGRVTFTTDTSTSTAYMELRSLRSDDTAVYYCARWDFAYYVEAMDYWGQGTTVTVSS
VL2: QAVVTQEPSLTVSPGGTVTLTCGSSTGAVTTSNYANWVQEKPGQAFRGLIGGTNKRAPGTPARFSGSLLGGKAALTLSGAQPEDEAEYYCALWYSNLWVFGGGTKLTVL
With B1, the “combination of cytokines released by CEA-TCB activated T cells with BET inhibition” value in the data set on MKN45 cells [3] (20nM CEA-TCB conditioned media + RG6146 30uM to 0.0005uM) is recorded as “synergistically combine with BET inhibition”. The “CTL killing of cells with low or no CEA” value in the data set on HCT116 cells [15] is reported as “not able to induce CTL killing”. Also, the “combination of cytokines released by CEA-TCB activated T cells with BET inhibition” value in the data set with HCT116 cells [16] is reported as “synergistically combine with BET inhibition”. Further, in [17], the PD-L1/PD-1 pathway result was “up-regulates”; the anti-tumor activity entry is reported as “potent anti-tumor activity”; the “intratumoral T cell infiltration” value is “increased intratumoral T cell infiltration”; the “release of pro-inflammatory cytokines such as IFNy, TNF and Granzyme B” value is on record as “increased release of pro-inflammatory cytokines”. Besides, the decreased tumor growth in data set [14] is recorded as 60%.
